This experiment deals with antigen-specific cellular immunity (IFN-γ-producing spleen cells). Nature of the experiment: Mouse immunization test 1 (tape preparation), ELISPOT. It counts as in vivo, genetically modified mouse (HLA-A*0201 type MHC). The following applies: acid added to WT1 peptide tape preparation (Table 1). Here is the method:
Mouse immunization test was performed with the tape preparations using a model animal for immunological evaluation. Evaluation of the immunity induction level was performed by the ELISPOT method. Specifically, the hair of the back of the mouse was cut. The mouse was kept until it recovered from the skin damage due to the hair cutting. After that, a sample was applied to the back of the mouse for the predetermined time, and then removed. Then, the mouse was kept for predetermined days and the level of the antigen-specific cellular immunity was evaluated. After predetermined days from the application of the sample, the spleen was isolated and a spleen cell suspension was prepared. Spleen cells (3×10^6 cells/well) and the antigen peptide (100 μM) together with the culturing medium were placed into a well of an ELISPOT plate on which an anti-mouse IFN-γ antibody had been immobilized. The plate was cultured for 20 hours under the condition of 37° C. and 5% CO2. The number of the spots representing IFN-γ-producing cells (spot number/3×10^6 cells) was evaluated by the ELISPOT method.
The amount of administration of the tape preparation was set to 0.7 cm^2 as described above, the number of administrations was (24 hr/week)×once, and extraction of the spleen was carried out 6 days after the administration. The mouse used for the experiment was a genetically modified mouse by which cellular immunity induction caused by HLA-A*0201 type MHC-restricted peptide can be evaluated.
In Example 8, administration was carried out on skin that was injured with a microcutter (MICRO FEATHER No. 7330G, manufactured by Feather Safety Razor Co., Ltd.).
In the case of `CCCCCCCCCC(=O)O` [decanoic acid], the “Promotion of cellular immunity induction by acid as second cellular immunity induction promoter” value (“Promotion of cellular immunity induction” for short) is recorded as “effective”.

Take `CC(C)CCCCCCCCCCCCCCC(=O)O` [isostearic acid]: the “Promotion of cellular immunity induction” value is reported as “particularly effective”.

In the case of `CC(O)C(=O)O` (stereo not drawn) [lactic acid], the “Promotion of cellular immunity induction” value was “particularly effective”.

Regarding `CCCCCCCCCCCC(=O)O` [lauric acid], the “Promotion of cellular immunity induction” value is listed as “particularly effective”.

As for `CCCCCCCCCCCCCC(=O)O` [myristic acid], the “Promotion of cellular immunity induction” value is “particularly effective”.

In the case of `CCCCCCCC(=O)O` [octanoic acid], the “Promotion of cellular immunity induction” value is “effective”.

For the compound `CCCCCCCC/C=C\CCCCCCCC(=O)O` [oleic acid], the “Promotion of cellular immunity induction” value is “particularly effective”.

Take `CCCCCCCCCCCCCCCC(=O)O` [palmitic acid]: the “Promotion of cellular immunity induction” value is reported as “effective”.

As to `CCCCCCCCCCCCCCCCCC(=O)O` [stearic acid], the “Promotion of cellular immunity induction” value was “effective”.

(Values after patent US10195258B2, “Tape preparation of WT1 peptide cancer vaccine for transdermal administration” (NITTO DENKO CORPORATION, priority 2013, dated 2019).)
